Measured values from ChEMBL document CHEMBL4414570, “Indole-Diterpenoids with Protein Tyrosine Phosphatase Inhibitory Activities from the Marine-Derived Fungus Penicillium sp. KFD28” (J Nat Prod, 2019).
Active and inactive are the calls of the source. The rule behind the calls is not given here.

How the values were obtained:
A549 = assay: Cytotoxicity against human A549 cells assessed as cell viability incubated for 48 hrs by MTT assay; assay type: functional, cell-based
[1] = biological target: Dual specificity protein phosphatase 3 (Homo sapiens) (UniProt P51452); assay: Inhibition of recombinant human VHR expressed in Escherichia coli using p-nitrophenyl phosphate as substrate preincubated for 15 mins followed by substrate addition and measured after 60 mins
Sequence of Dual specificity protein phosphatase 3 (Homo sapiens) (P51452 whole entry, looked up): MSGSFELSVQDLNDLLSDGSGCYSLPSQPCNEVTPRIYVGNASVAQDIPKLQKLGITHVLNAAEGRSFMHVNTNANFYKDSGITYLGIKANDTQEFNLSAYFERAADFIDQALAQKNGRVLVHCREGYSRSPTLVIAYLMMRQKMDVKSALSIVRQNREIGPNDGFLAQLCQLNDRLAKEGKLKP

SGC-7901 = assay: Cytotoxicity against human SGC7901 cells assessed as cell viability incubated for 48 hrs by MTT assay; assay type: functional, cell-based
HeLa = assay: Cytotoxicity against human HeLa cells assessed as cell viability incubated for 48 hrs by MTT assay; assay type: functional, cell-based
K562 = assay: Cytotoxicity against human K562 cells assessed as cell viability incubated for 48 hrs by MTT assay; assay type: functional, cell-based
[2] = biological target: Receptor-type tyrosine-protein phosphatase S (Homo sapiens, UniProt Q13332); assay: Inhibition of recombinant human PTPsigma expressed in Escherichia coli using p-nitrophenyl phosphate as substrate preincubated for 15 mins followed by substrate addition and measured after 60 mins
Sequence of Receptor-type tyrosine-protein phosphatase S (Q13332 whole entry): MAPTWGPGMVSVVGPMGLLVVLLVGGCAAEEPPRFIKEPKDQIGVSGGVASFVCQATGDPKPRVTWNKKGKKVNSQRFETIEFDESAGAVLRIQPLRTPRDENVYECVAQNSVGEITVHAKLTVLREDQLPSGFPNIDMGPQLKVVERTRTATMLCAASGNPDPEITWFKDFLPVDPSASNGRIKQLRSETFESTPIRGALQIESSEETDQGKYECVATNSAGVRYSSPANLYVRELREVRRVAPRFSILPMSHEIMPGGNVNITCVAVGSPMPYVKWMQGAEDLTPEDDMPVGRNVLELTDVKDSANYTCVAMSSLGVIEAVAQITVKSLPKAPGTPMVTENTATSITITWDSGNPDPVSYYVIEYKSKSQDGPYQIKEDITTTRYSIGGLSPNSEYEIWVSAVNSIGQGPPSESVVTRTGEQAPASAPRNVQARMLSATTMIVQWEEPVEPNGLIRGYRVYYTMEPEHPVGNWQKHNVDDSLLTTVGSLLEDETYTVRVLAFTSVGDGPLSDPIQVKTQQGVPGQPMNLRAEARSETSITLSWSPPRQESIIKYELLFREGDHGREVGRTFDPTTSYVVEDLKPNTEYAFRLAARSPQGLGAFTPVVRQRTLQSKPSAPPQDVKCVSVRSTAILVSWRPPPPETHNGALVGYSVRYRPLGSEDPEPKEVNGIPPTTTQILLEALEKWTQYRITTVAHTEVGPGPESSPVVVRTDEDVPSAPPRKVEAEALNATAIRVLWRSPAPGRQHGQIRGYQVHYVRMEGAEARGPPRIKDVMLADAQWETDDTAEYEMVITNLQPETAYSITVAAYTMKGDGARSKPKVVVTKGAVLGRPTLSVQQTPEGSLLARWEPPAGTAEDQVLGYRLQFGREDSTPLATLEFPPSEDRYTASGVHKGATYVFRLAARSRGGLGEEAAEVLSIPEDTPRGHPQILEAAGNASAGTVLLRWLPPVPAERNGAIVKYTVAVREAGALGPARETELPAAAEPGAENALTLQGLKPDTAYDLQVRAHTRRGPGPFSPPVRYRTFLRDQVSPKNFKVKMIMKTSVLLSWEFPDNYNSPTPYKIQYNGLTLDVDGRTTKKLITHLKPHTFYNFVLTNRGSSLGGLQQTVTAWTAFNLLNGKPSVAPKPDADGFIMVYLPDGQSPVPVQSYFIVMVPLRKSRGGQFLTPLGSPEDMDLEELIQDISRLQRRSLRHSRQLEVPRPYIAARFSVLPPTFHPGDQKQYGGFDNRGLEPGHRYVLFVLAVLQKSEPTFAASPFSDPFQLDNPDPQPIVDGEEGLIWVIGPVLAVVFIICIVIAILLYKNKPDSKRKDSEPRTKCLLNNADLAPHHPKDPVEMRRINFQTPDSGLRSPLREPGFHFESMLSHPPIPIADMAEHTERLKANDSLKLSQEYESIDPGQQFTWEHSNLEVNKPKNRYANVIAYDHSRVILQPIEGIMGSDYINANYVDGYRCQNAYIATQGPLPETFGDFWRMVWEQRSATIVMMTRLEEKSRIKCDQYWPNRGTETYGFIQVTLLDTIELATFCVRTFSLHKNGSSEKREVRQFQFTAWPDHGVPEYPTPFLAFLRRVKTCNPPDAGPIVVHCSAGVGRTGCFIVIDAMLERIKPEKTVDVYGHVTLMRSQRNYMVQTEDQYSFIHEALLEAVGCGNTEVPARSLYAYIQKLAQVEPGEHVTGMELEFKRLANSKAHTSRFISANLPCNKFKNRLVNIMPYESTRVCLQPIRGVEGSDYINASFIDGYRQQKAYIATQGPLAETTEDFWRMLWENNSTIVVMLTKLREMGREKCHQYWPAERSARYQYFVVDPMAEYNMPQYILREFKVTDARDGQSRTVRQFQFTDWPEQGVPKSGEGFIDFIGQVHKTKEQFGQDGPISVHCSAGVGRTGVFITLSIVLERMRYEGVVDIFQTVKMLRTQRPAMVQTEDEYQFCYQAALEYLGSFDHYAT

[3] = biological target: T1, Tyrosine-protein phosphatase non-receptor type 1 (Homo sapiens, UniProt P18031); assay: Inhibition of recombinant human PTP1B expressed in Escherichia coli using p-nitrophenyl phosphate as substrate preincubated for 15 mins followed by substrate addition and measured after 60 mins
T1 sequence (P18031 whole entry): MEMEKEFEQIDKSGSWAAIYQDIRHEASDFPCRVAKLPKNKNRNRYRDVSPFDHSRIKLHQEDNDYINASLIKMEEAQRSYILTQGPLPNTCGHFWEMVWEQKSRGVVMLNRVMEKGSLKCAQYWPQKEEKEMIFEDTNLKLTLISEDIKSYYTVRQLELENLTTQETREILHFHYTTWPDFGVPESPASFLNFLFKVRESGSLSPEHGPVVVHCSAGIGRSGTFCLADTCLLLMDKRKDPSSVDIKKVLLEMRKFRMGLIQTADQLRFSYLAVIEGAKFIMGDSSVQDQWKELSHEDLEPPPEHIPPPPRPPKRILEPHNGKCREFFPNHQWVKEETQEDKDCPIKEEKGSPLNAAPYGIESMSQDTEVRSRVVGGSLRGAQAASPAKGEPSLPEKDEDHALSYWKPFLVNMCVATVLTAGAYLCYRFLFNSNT

[4] = biological target: T2, Tyrosine-protein phosphatase non-receptor type 2 (Homo sapiens, UniProt P17706); assay: Inhibition of recombinant human TCPTP expressed in Escherichia coli using p-nitrophenyl phosphate as substrate preincubated for 15 mins followed by substrate addition and measured after 60 mins
T2 sequence (P17706 whole entry): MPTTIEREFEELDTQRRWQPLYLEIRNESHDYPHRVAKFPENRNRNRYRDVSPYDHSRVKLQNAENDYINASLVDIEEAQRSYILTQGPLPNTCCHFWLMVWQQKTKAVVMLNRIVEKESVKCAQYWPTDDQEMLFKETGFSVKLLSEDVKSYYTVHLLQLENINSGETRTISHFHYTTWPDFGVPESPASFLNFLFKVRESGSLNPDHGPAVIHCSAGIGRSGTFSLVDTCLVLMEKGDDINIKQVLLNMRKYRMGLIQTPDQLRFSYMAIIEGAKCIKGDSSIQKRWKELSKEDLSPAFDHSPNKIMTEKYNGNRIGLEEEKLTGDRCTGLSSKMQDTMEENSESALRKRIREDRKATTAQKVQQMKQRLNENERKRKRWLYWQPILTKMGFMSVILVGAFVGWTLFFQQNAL

Row | inhibition [1] | IC50 [2] [µM] | IC50 [3] [µM] | SMILES | Activity (A549) | Activity (SGC-7901) | Activity (HeLa) | Activity (K562) | IC50 [4] [µM]
1 | inactive | – | – | CC1(C)C=C2c3cc4[nH]c5c(c4cc3C[C@@H]2C(C)(C)O1)C[C@@H]1CC[C@@]2(O)C3=CC(=O)[C@@H](C(C)(C)O)O[C@@]3(O)CC[C@]2(C)[C@@]51C | inactive | inactive | inactive | inactive | –
2 | inactive | – | – | CC(C)(O)[C@@H]1CC=C2[C@H](CC[C@@]3(C)[C@H]2CC[C@H]2Cc4c([nH]c5ccccc45)[C@@]23C)O1 | inactive | inactive | inactive | inactive | –
3 | inactive | – | – | CC1(C)O[C@@]23CC[C@@]4(C)[C@@](O)(CC[C@H]5Cc6c([nH]c7ccccc67)[C@@]54C)C2=CC(=O)[C@H]1O3 | inactive | inactive | inactive | inactive | –
4 | inactive | – | – | CC(C)(O)[C@@H]1OC(=O)C=C2[C@H](CC[C@@]3(C)[C@@]2(O)CC[C@H]2Cc4c([nH]c5ccccc45)[C@@]23C)O1 | inactive | inactive | inactive | inactive | –
5 | inactive | – | – | CC1(C)CC2=C(Cc3cc4c5c([nH]c4cc32)[C@@]2(C)[C@@H](CC[C@@]3(O)C4=CC(=O)[C@@H](C(C)(C)O)O[C@@]4(O)CC[C@@]32C)C5)C(C)(C)O1 | inactive | inactive | inactive | inactive | –
6 | inactive | – | – | CC(C)(O)[C@@H]1CC[C@]2(C=O)[C@H](CC[C@@]3(C)[C@H]2CC[C@H]2Cc4c([nH]c5ccccc45)[C@@]23C)O1 | inactive | inactive | inactive | inactive | –

The remaining lines, values behind:

Row | SMILES | inhibition [1] | IC50 [2] [µM] | IC50 [3] [µM] | Activity (A549) | Activity (SGC-7901) | Activity (HeLa) | Activity (K562) | IC50 [4] [µM]
7 | CC1(C)CC2=C(Cc3cc4c(cc32)NC(=O)[C@@]2(C)[C@@H](CC[C@@]3(O)C5=CC(=O)[C@@H](C(C)(C)O)O[C@H]5CC[C@@]32C)CC4=O)C(C)(C)O1 | inactive | – | – | inactive | inactive | inactive | inactive | –
8 | CC1(C)C[C@H]2[C@@H]3C(=O)CC[C@]4(C)[C@@]5(C)c6[nH]c7ccccc7c6C[C@@H]5CC[C@@]34O[C@@]2(O)[C@@H]1O | inactive | 38 | 14 | inactive | inactive | inactive | inactive | –
9 | CC(C)(O)[C@H]1O[C@@]2(O)CC[C@@]3(C)C(=CC[C@H]4Cc5c([nH]c6ccccc56)[C@@]43C)C2=CC1=O | inactive | – | 13 | inactive | inactive | inactive | inactive | 37
10 | CC(C)(O)[C@H]1O[C@H]2CC[C@@]3(C)[C@@](O)(CC[C@@H](CC(=O)c4ccccc4N)[C@]3(C)C(=O)O)C2=CC1=O | inactive | – | – | inactive | inactive | inactive | inactive | –
11 | C[C@]12CC[C@@H]3OCC(=O)C=C3[C@]1(O)CC[C@H]1Cc3c([nH]c4ccccc34)[C@@]12C | inactive | – | 27 | inactive | inactive | inactive | inactive | –
12 | CC(C)(O)[C@H]1O[C@H]2CC[C@@]3(C)[C@@](O)(CC[C@H]4C(=O)c5c([nH]c6ccccc56)[C@@]43C)C2=CC1=O | inactive | – | 23 | inactive | inactive | inactive | inactive | 35
